Measured values reported in publication PMC6755732, “Structural, Biochemical, and In Vivo Characterization of MtrR-Mediated Resistance to Innate Antimicrobials by the Human Pathogen Neisseria gonorrhoeae” (Journal of Bacteriology, 2019).
Read-outs that look alike come from different tables or passages of the source.

Key:
MtrR-mtrCDE promoter = target: T1, MtrR-mtrCDE promoter (Neisseria gonorrhoeae, UniProt P39897); type: biochemical; details: for Fold increase in Kd: versus no bile salt
T1 construct: nearly all 210 residues of each protomer observed, with the exception of residues 1 through 7; hexahistidine tag (thrombin-cleavable) (cleaved yes); made in house
T1 sequence (P39897 whole entry): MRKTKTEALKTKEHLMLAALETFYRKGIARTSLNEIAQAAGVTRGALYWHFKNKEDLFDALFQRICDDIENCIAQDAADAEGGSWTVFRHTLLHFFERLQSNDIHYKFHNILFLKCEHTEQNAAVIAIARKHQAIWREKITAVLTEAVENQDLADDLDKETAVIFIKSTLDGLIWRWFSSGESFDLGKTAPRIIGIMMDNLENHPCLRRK
Procedure: Thus, to rule out any effect of alkaline pH on MtrR-DNA interactions, we buffered the CAPS used in the FP assay to pH 8.0 before testing its effect on DNA binding.
Fluorescence polarization-based DNA binding experiments were performed with a Panvera Beacon 2000 fluorescence polarization system (Invitrogen) utilizing 5′-fluorescein-labeled DNA. Polarization (P) of such 5′-labeled DNA increases as a function of protein binding, and equilibrium dissociation constants are determined by curve fitting the values of millipolarization (P × 10^−3) units against the protein concentration. To determine the effects of various ligands on MtrR-DNA binding, 1 nM 5′-fluoresceinated oligodeoxynucleotide duplexes containing the mtrC operator site in 1 ml binding buffer (20 mM Tris HCl [pH 8.0], 100 mM NaCl, and 2.5% glycerol) were titrated against increasing concentrations of purified MtrR in the presence or absence of the indicated concentrations of bile salt, and the resulting changes in polarization were measured. All the samples were excited at 490 nm, and their polarized emissions were measured at 530 nm. All the data were plotted using Kaleidagraph (Synergy Software) and Prism (GraphPad Software), and the resulting plots were fitted to the following equation: P = {(Pbound − Pfree)[protein]/(KD + [protein])} + Pfree, where P is the polarization measured at a given protein concentration, Pfree is the initial polarization of the free ligand, Pbound is the maximum polarization of specifically bound ligand, KD is the equilibrium dissociation constant, and [protein] is the protein concentration. Nonlinear least-squares analysis was used to determine Pbound, and Kd. The reported binding constants are the average values from at least three independent experimental measurements.

[1] = CAPS buffer; no reference given; cited from earlier work
MtrR = target: T2, MtrR (Neisseria gonorrhoeae, UniProt P39897); assay: Isothermal titration calorimetry, wild-type MtrR with bile salts; type: binding; details: ITC, 25°C, 20 μM MtrR in cell, 250 μM ligand in syringe
T2 construct: A codon optimized gene of MtrR was synthesized by GenScript and cloned into the; hexahistidine tag with TEV protease site (N, cleaved yes); made in house
T2 sequence (P39897 whole entry): as above
Procedure: Purified MtrR was dialyzed extensively against buffer containing 20 mM Tris [pH 8.0], 200 mM NaCl, 10% glycerol, and 1 mM TCEP overnight at 4°C. The stock solutions and the necessary dilutions of the bile salts were prepared using this dialysis buffer. Titrations with 20 μM MtrR in the cell and 250 μM ligand in the syringe were performed using a VP-ITC microcalorimeter (Microcal Inc.). All measurements were conducted at 25°C with a stirring speed of 200 rpm. After subtraction of germane blank data, the titration data were analyzed using the program ORIGIN 5.0.
Protein purification for Isothermal Titration Calorimetry experiments and mutant […]
A codon optimized gene of MtrR was synthesized by GenScript and cloned into the pMCSG7 vector in- frame with the N-terminal Hexa- histidine tag and tobacco etch virus (TEV) protease cleavage site. This construct was used as the template for site- directed mutagenesis and to generate wild- type data in supplemental f igures 5-6 and Isothermal Titration Calorimetry data. This protein was overexpressed and purified as described in the “Materials and Methods” of the document, except the he xa -histidine tag MtrR was cleaved by TEV protease following NiNTA affinity chromatography. Cleaved MtrR was purified from tagged MtrR and cleaved hexa- histidine tag by Ni- NTA aff inity chromatography and then further purified by size exclusion chromatography (S200).

MtrR-DNA complex = target: T3, MtrR-DNA complex (Neisseria gonorrhoeae, UniProt P39897); type: biochemical; details: EMSA, wild-type MtrR, mtrC promoter oligoduplex
T3 construct: nearly all 210 residues of each protomer observed, with the exception of residues 1 through 7; hexahistidine tag (thrombin-cleavable) (cleaved yes); made in house
T3 sequence (P39897 whole entry, one chain of several): as the sequence (P39897 whole entry) above
Procedure: To test the hypothesis that these bile salts directly bind to MtrR and potentially derepress gene expression by interfering with the DNA binding activity of MtrR, MtrR-mtrC promoter interactions were tested in the presence and absence of different concentrations of several bile salts. […] It is important to note that this is a competition assay that, due to its experimental design, requires the use of 3 μM DNA and 4 to 10 μM MtrR dimer. Consequently, this means that ∼99.9% of all DNA is MtrR bound.
Complementary oligodeoxynucleotides containing the MtrR binding site from the mtrC promoter (top strand, 5′-[sequence]-3′; an unusual pseudo-direct repeat is underlined) were annealed by heating an equimolar mixture of the top and bottom strands at 95°C for 5 min, followed by slow cooling to room temperature. Binding reactions were carried out in 20-μl volumes of binding buffer (20 mM Tris [pH 8.0], 200 mM NaCl, 10% glycerol, and 1 mM TCEP) containing 1 μg oligoduplex, 1 μg poly(dI-dC), and 4 to 10 μg MtrR. After a 20-minute incubation at room temperature, the preformed complex was incubated with or without various concentrations of selected bile salts at room temperature for an additional 10 min. […] The gels were stained with ethidium bromide and visualized and analyzed with an Alpha Innotech gel documentation instrument. The intensities of free DNA were measured with ImageJII ([61], [62]).

[2] = test system: mtrCp-lacZ in FA19 (wild type); assay: β-Galactosidase assay of mtrCp-lacZ fusion, strain FA19; type: cell-based, Neisseria gonorrhoeae
Description: (§1) To determine if sublethal concentrations of bile salts could relieve MtrR-mediated repression of mtrC (and, by inference, the mtrCDE operon), a translational fusion of the promoter region of mtrC to lacZ was used. This fusion system was made in the wild-type (FA19) background ([41]) and cloned into mtrR deletion mutant strain JF1. Using the mtrCp-lacZ fusion, the β-galactosidase activity of the strains grown in the presence or absence of the bile salt chenodeoxycholate, taurodeoxycholate, or glycocholate was measured. The β-galactosidase levels were determined from strains grown overnight on GC agar supplemented with the bile salt at concentrations 4-fold below their specific MICs to ensure that the concentration of each bile salt was in the same biological range (the bile salt concentrations are listed in Table 2).
N. gonorrhoeae strains FA19 (wild type) and JF1 (FA19 ΔmtrR) containing a translational mtrCp-lacZ fusion with the proAB locus were used to assess the ability of bile salts to induce mtrC expression; the construction of these strains has been described previously ([41]). The MIC of bile salts for each strain used in the β-galactosidase assay was determined using a 2-fold agar dilution method ([32]). Gonococci were grown overnight on GC agar (Difco Laboratories) supplemented with a bile salt (glycocholate, chenodeoxycholate, or taurodeoxycholate) at concentrations that were 4-fold below the MIC. After overnight growth at 37°C under 3.8% (vol/vol) CO2, the bacteria were scraped from the agar plate, resuspended in 1 ml phosphate-buffered saline (pH 7.4), and lysed by freeze-thawing three times, after which the cell debris was pelleted by centrifugation. The lysate was then used to determine β-galactosidase levels as described previously ([63]). All experiments were performed in triplicate with at least three biological replicates conducted on different days.

[3] = test system: mtrCp-lacZ in JF1 (FA19 ΔmtrR); type: cell-based, Neisseria gonorrhoeae
Description: as §1
N. gonorrhoeae strains FA19 (wild type) and JF1 (FA19 ΔmtrR) containing a translational mtrCp-lacZ fusion with the proAB locus were used to assess the ability of bile salts to induce mtrC expression; the construction of these strains has been described previously ([41]). The MIC of bile salts for each strain used in the β-galactosidase assay was determined using a 2-fold agar dilution method ([32]). […]

O=S(=O)(O)CCCNC1CCCCC1 [CAPS, N-cyclohexyl-3-aminopropanesulfonic acid]
Fold reduction of MtrR affinity for the mtrC operator sequence (MtrR-mtrCDE promoter; 10 mM CAPS, pH 8.0): > 300 fold | pKa [1]: ~10.5

C[C@H](CCC(=O)NCC(=O)O)[C@H]1CC[C@H]2[C@@H]3[C@H](O)C[C@@H]4C[C@H](O)CC[C@]4(C)[C@H]3C[C@H](O)[C@]12C [Glycocholate, glycocholate]
Kd of bile salt binding to WT MtrR (MtrR): no measurable binding | Fold increase in Kd (MtrR-mtrCDE promoter; 1 mM bile salt): 1.2 | Fold increase in Kd (MtrR-mtrCDE promoter; 1 mM bile salt, listed as glycocholate): no effect | Fold increase in Kd (MtrR-mtrCDE promoter; 5 mM bile salt): 5 | Fold increase in Kd (MtrR-mtrCDE promoter; 10 mM bile salt): 6 | Concentration that disrupts the preformed MtrR-DNA complex (MtrR-DNA complex): > 40 mM | MtrR-dependent derepression of the mtrC promoter ([2]; FA19 compared with ΔmtrR strain JF1, sublethal bile salt): failed to exhibit MtrR-dependent derepression | Fold increase of mtrCp-lacZ activity ([2]; strain FA19, grown on GC agar with bile salt 4-fold below MIC versus normal agar, mM concentration in parentheses in the cell): 1.43 (0.48) | Fold increase of mtrCp-lacZ activity [3]: 2.11 (0.96)
